Laboratory results from ChEMBL document CHEMBL1201862, “PubChem BioAssay data set” (2004).
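Growth conditions: 96-well plates. Treatment: test compound, 48 hours, 5 concentrations. Analysis: linear interpolation between bracketing concentrations; unreached endpoints set to highest concentration. GI50 marks 50% less growth.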 Activity calls are given as the source filed them. Rule as the data show it: active = GI50 up to about 1.1 µM and inactive = higher.

Assays:
Assay in all cases: NCI anticancer screen, dose series, 48 h
SNB-19 = tested on: SNB-19
M14 = tested on: M14
XF498 = tested on: XF498
K562 = tested on: K562
SF-268 = tested on: SF-268
RPMI-8226 = tested on: RPMI-8226
HT-29 = tested on: HT-29
SK-MEL-5 = tested on: SK-MEL-5
HL-60 = tested on: HL-60
COLO 205 = tested on: COLO 205
KM-20L2 = tested on: KM-20L2
CAKI-1 = tested on: CAKI-1
EKVX = tested on: EKVX
Malme-3M = tested on: Malme-3M
SNB-78 = tested on: SNB-78
SK-MEL-28 = tested on: SK-MEL-28
DLD-1 = tested on: DLD-1
HCC 2998 = tested on: HCC 2998
DMS-273 = tested on: DMS-273
ACHN = tested on: ACHN
NCI-H226 = tested on: NCI-H226
LOX IMVI = tested on: LOX IMVI
OVCAR-5 = tested on: OVCAR-5
A498 = tested on: A498
UO-31 = tested on: UO-31
SR = tested on: SR
NCI-H522 = tested on: NCI-H522
CCRF-CEM = tested on: CCRF-CEM
U-251 = tested on: U-251
SF-539 = tested on: SF-539
786-0 = tested on: 786-0
SF-295 = tested on: SF-295
HCT-116 = tested on: HCT-116
SNB-75 = tested on: SNB-75
RXF 631 = tested on: RXF 631
M19-MEL = tested on: M19-MEL
HOP-62 = tested on: HOP-62
SK-OV-3 = tested on: SK-OV-3
OVCAR-4 = tested on: OVCAR-4
KM12 = tested on: KM12
UACC-62 = tested on: UACC-62
HOP-92 = tested on: HOP-92
LXFL 529 = tested on: LXFL 529
UACC-257 = tested on: UACC-257
MOLT-4 = tested on: MOLT-4
HCT-15 = tested on: HCT-15
A549 = tested on: A549
IGROV-1 = tested on: IGROV-1
SK-MEL-2 = tested on: SK-MEL-2
NCI-H460 = tested on: NCI-H460
OVCAR-3 = tested on: OVCAR-3
SN12C = tested on: SN12C
OVCAR-8 = tested on: OVCAR-8
TK-10 = tested on: TK-10
NCI-H23 = tested on: NCI-H23
SW-620 = tested on: SW-620
DMS-114 = tested on: DMS-114
RXF 393 = tested on: RXF 393
HOP-18 = tested on: HOP-18

Measured: GI50

COC(=O)C(CCS(=O)(=O)CC(=O)C(=O)Nc1cccc(C(C)=O)c1)C(=O)OC
inactive: SNB-19 > 100 µM | M14 > 100 µM | XF498 > 100 µM | K562 > 61 µM | RPMI-8226 > 47.2 µM | HT-29 > 100 µM | SK-MEL-5 > 100 µM | HL-60 > 100 µM | COLO 205 > 54.5 µM | KM-20L2 > 100 µM | CAKI-1 > 100 µM | EKVX > 100 µM | Malme-3M > 100 µM | SNB-78 > 100 µM | SK-MEL-28 > 91.4 µM | DLD-1 > 56.2 µM | HCC 2998 > 100 µM | DMS-273 > 100 µM | ACHN > 100 µM | NCI-H226 > 100 µM | LOX IMVI > 61.9 µM | OVCAR-5 > 100 µM | A498 > 100 µM | UO-31 > 100 µM | SR 20.9 µM | NCI-H522 > 92.3 µM | CCRF-CEM > 43.1 µM | U-251 > 89.7 µM | SF-539 > 100 µM | 786-0 > 100 µM | SF-295 > 100 µM | HCT-116 > 56.6 µM | SNB-75 > 100 µM | RXF 631 > 100 µM | M19-MEL > 100 µM | HOP-62 > 100 µM | SK-OV-3 > 100 µM | OVCAR-4 > 100 µM | KM12 > 100 µM | UACC-62 > 100 µM | HOP-92 > 100 µM | LXFL 529 > 100 µM | UACC-257 > 100 µM | MOLT-4 > 100 µM | A549 > 100 µM | IGROV-1 > 100 µM | SK-MEL-2 > 100 µM | NCI-H460 > 53 µM | OVCAR-3 > 100 µM | SN12C > 100 µM | OVCAR-8 > 100 µM | TK-10 > 100 µM | NCI-H23 > 100 µM | SW-620 > 100 µM | DMS-114 > 39.4 µM | RXF 393 > 100 µM | HOP-18 > 100 µM
> 72.1 µM: HCT-15
active: SF-268 0.586 µM

NC1=NN(c2ccccc2)C(=O)C1/C(=N\NC(=O)c1cc2ccccc2cc1O)C(=O)Nc1nc([N+](=O)[O-])cs1 (stereo not drawn)
inactive: SNB-19 > 60.1 µM | M14 35.7 µM | XF498 36.6 µM | K562 9.64 µM | SF-268 16.7 µM | RPMI-8226 9.59 µM | HT-29 32.7 µM | SK-MEL-5 20.3 µM | HL-60 8.81 µM | COLO 205 23.7 µM | KM-20L2 40.9 µM | CAKI-1 > 25.6 µM | EKVX 47.3 µM | Malme-3M > 65 µM | SNB-78 > 100 µM | SK-MEL-28 42.7 µM | DLD-1 31.5 µM | HCC 2998 40.2 µM | DMS-273 > 45.2 µM | ACHN 34.4 µM | NCI-H226 49.1 µM | LOX IMVI 18.4 µM | OVCAR-5 44.9 µM | A498 41.2 µM | UO-31 9.42 µM | SR 6.78 µM | NCI-H522 19.1 µM | CCRF-CEM 17.3 µM | U-251 27.7 µM | SF-539 23.9 µM | 786-0 31.5 µM | SF-295 28.9 µM | HCT-116 32.1 µM | SNB-75 18.5 µM | RXF 631 22.7 µM | M19-MEL 27.8 µM | HOP-62 54 µM | SK-OV-3 55.7 µM | OVCAR-4 33.7 µM | KM12 30.3 µM | UACC-62 19.6 µM | HOP-92 13.7 µM | LXFL 529 34.8 µM | UACC-257 22.2 µM | MOLT-4 3.6 µM | A549 32.7 µM | IGROV-1 19.1 µM | SK-MEL-2 > 49.8 µM | NCI-H460 18.1 µM | OVCAR-3 30.1 µM | SN12C 37 µM | OVCAR-8 19.5 µM | TK-10 38.5 µM | NCI-H23 18.4 µM | SW-620 27.9 µM | DMS-114 18.4 µM | RXF 393 2.73 µM | HOP-18 40 µM
24.3 µM: HCT-15
